Assay results taken from patent US20170073337A1, “DIHYDROTHIAZINE AND DIHYDROOXAZINE DERIVATIVES HAVING BACE1 INHIBITORY ACTIVITY” (Shionogi & Co., Ltd., priority 2014, published 2017).
≈ marks a conversion by molar mass, not a printed value. Read-outs that look alike come from different tables or passages of the source.

Tests used:
CYP1A2 = target: T1, CYP1A2 (Homo sapiens, UniProt P05177); experiment: CYP inhibition test (CYP1A2); type: in vitro ADME; details: pooled human liver microsomes; 7-ethoxyresorufin O-deethylation
T1 construct: The commercially available pooled human liver microsomes are used as an enzyme resource; from tissue; host or cells: pooled human liver microsomes
T1 sequence (P05177 1-516): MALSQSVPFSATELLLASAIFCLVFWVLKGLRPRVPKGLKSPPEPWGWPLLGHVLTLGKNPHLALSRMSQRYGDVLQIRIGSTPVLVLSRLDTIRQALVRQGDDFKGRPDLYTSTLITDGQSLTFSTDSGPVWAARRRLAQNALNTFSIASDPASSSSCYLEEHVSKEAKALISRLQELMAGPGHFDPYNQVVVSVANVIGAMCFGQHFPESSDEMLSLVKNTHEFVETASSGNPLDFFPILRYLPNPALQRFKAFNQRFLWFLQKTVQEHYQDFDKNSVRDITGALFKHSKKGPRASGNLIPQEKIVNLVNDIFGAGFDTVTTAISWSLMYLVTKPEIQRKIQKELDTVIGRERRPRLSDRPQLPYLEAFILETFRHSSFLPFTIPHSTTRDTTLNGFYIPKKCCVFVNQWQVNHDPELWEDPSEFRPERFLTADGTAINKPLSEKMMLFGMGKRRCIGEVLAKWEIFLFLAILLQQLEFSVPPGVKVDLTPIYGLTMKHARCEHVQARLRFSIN
In short: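 Inhibition of CYP1A2 was measured in commercially available pooled human liver microsomes (0.2 mg protein/mL) using 7-ethoxyresorufin O-deethylation with 0.5 μmol/L ethoxyresorufin. Test compound at 1, 5, 10, 20 μmol/L in […] Hepes buffer was incubated at 37° C. after NADPH addition; methanol/acetonitrile=1/1 (v/v) stopped the reaction, and resorufin was read fluorescently.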

CYP2C19 = target: T2, CYP2C19 (Homo sapiens, UniProt P33261); experiment: CYP inhibition test (CYP2C19); type: in vitro ADME; details: pooled human liver microsomes; mephenytoin 4′-hydroxylation
T2 construct: The commercially available pooled human liver microsomes are used as an enzyme resource; from tissue; host or cells: pooled human liver microsomes
T2 sequence (P33261 whole entry): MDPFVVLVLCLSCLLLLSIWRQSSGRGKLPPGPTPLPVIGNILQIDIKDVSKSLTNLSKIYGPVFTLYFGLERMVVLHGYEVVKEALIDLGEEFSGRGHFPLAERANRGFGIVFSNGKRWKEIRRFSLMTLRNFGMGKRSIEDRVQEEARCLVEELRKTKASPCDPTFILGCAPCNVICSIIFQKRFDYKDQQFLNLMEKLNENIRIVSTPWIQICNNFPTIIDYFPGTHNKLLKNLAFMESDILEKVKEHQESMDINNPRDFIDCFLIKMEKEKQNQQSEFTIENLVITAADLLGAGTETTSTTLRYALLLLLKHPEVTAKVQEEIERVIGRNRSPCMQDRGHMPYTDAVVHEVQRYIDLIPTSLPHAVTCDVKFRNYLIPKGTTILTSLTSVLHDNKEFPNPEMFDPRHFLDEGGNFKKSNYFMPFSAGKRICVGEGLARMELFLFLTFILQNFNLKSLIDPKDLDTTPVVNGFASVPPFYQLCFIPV
In short: (§1)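 Pooled human liver microsomes (0.2 mg protein/mL) were incubated at 37 °C with NADPH, compound at 1, 5, 10, 20 μmol/L and marker substrates: tolbutamide 100 μmol/L (2C9), S-mephenytoin 50 μmol/L (2C19), dextromethorphan 5 μmol/L (2D6), terfenadine 1 μmol/L (3A4). Metabolites were measured by LC/MS/MS; IC50 came from logistic fitting against DMSO control.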

CYP3A4 = target: T3, CYP3A4 (Homo sapiens, UniProt P08684); experiment: CYP inhibition test (CYP3A4); type: in vitro ADME; details: pooled human liver microsomes; terfenadine hydroxylation
T3 construct: The commercially available pooled human liver microsomes are used as an enzyme resource; from tissue; host or cells: pooled human liver microsomes
T3 sequence (P08684 whole entry): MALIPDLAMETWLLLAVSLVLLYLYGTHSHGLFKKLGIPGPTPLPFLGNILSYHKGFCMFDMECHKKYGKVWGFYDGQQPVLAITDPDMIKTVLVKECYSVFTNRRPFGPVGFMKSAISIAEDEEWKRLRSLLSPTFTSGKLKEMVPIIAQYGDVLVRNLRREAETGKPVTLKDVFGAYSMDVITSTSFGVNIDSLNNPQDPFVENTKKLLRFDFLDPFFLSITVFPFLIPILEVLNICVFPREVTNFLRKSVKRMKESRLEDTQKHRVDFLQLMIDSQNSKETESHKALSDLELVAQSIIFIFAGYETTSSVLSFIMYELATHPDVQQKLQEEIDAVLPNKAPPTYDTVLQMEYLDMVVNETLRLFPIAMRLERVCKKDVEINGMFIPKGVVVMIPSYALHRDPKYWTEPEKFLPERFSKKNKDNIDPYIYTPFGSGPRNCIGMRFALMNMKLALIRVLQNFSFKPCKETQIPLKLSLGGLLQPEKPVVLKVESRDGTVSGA
In short: as §1

Solubility test = type: physicochemical
In short: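 Dissolved concentration determined by LC/MS or SPE/MS (absolute calibration) in diluted filtrates, after 2 μL of 10 mmol/L DMSO stock was added to 198 μL JP 1st or JP 2nd fluid and equilibrated either 1 h with shaking at room temperature or 16 h standing at 25 °C.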

Metabolic stability test = type: in vitro ADME; details: human liver microsomes, 37° C., 30 minutes, NADPH
In short: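 Parent compound was measured by LC/MS/MS or SPE/MS after a methanol/acetonitrile quench and reported as % remaining, with the 0 min sample set to 100%. Incubations ran 30 min at 37 °C in pH 7.4 Tris buffer containing pooled human liver microsomes at 0.5 mg protein/mL and 1 mmol/L NADPH.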

[1] = target: T4, human ether-a-go-go related gene (hERG) channel (Homo sapiens, UniProt Q12809); experiment: hERG test; type: cell-based; details: % inhibition of IKr tail peak current at 3 uM; CHO cells expressing hERG
T4 construct: expressed in transfected cells; host or cells: CHO cells
T4 sequence (Q12809 whole entry): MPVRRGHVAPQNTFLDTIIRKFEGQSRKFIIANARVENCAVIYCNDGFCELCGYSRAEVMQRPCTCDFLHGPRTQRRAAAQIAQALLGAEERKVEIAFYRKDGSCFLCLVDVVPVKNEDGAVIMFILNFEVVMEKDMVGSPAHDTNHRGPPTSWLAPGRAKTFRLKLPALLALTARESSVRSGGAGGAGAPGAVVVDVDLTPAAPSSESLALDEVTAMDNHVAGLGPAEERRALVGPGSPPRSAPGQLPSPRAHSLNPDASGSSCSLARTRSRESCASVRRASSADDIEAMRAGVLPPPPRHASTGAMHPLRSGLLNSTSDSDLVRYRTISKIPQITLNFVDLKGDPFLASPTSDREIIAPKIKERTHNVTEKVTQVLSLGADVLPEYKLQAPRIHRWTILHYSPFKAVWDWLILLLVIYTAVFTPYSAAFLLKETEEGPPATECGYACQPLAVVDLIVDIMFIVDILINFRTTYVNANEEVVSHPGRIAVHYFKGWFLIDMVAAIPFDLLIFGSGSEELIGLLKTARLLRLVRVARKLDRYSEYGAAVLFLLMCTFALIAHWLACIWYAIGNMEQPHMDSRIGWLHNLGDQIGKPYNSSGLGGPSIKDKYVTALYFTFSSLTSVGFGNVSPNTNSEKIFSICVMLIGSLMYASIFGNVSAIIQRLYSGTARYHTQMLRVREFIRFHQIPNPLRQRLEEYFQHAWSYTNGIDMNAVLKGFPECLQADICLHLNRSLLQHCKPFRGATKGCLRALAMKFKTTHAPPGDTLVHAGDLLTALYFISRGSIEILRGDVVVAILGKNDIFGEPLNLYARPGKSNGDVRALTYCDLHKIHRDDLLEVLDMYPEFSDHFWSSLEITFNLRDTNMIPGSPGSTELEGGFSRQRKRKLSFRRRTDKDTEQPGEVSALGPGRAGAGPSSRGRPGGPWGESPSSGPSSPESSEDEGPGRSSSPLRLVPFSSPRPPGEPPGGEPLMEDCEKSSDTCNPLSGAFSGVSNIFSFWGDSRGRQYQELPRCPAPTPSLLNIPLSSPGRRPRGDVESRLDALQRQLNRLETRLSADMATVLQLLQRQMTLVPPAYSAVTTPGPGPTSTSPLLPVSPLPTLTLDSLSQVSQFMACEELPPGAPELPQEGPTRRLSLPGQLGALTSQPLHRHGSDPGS
In short: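 IKr was recorded from hERG-expressing CHO cells by automated whole-cell patch clamp at a holding potential of −80 mV. A −50 mV leak step was followed by a 2 s depolarization to +20 mV and a 2 s repolarization to −50 mV, when current was measured.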

[2] = JP 1st fluid, 25 °C, pH 1.2, simulated gastric fluid, kinetic from dmso stock, read-out: JP1
[3] = JP 2nd fluid A, 25 °C, pH 6.8, aqueous buffer, kinetic from dmso stock, read-out: JP2_μM
[4] = JP 1st fluid, pH 1.2, simulated gastric fluid, kinetic from dmso stock, read-out: JP1
[5] = JP 2nd fluid A, pH 6.8, aqueous buffer, kinetic from dmso stock, read-out: JP2_μM
[6] = solubility in JP 2nd fluid B, 1% DMSO, *2: shaken for 1 hour at room temperature, read-out: JP2_μM
[7] = JP 2nd fluid B, pH 6.8, aqueous buffer, kinetic from dmso stock, read-out: JP2_μM

Row | IC50 (CYP1A2) [µM] | IC50 (CYP2C19) [µM] | IC50 (CYP3A4) [µM] | solubility kinetic at 16 h (Solubility test; [2]) [µM] | solubility kinetic at 16 h (Solubility test; [3]) [µM] | remaining % (Metabolic stability test) [%] | solubility kinetic at 1 h (Solubility test; [4]) [µM] | solubility kinetic at 1 h (Solubility test; [5]) [µM] | solubility kinetic at 16 h (Solubility test; [6]) [µM] | solubility kinetic at 1 h (Solubility test; [7]) [µM] | SMILES | hERG_3 uM_% [1] [%]
1 | ≥ 20 | ≥ 20 | ≥ 20 | 23.3 (≈ 9.21 µg/mL) | > 50 | 88 |  |  |  |  | C[C@H]1SC(N)=N[C@](C)(c2nc(NC(=O)c3ccc(F)cn3)ccc2F)[C@H]1F [Compound I-2] | 38.7
2 | ≥ 20 | ≥ 20 | ≥ 20 | 34 (≈ 15.4 µg/mL) | > 50 | 86.4 |  |  |  |  | C[C@]1(c2cc(NC(=O)c3cnc(OCF)cn3)ccc2F)N=C(N)OCC12CC(F)(F)C2 [Compound I-44] | 28.9
3 | ≥ 20 | ≥ 20 | ≥ 20 |  |  | 96.9 | > 50 | 30.5 (≈ 13.5 µg/mL) |  |  | C[C@H]1SC(N)=N[C@](C)(c2cc(NC(=O)c3cnc(OC(F)F)cn3)ccc2F)[C@H]1F [Compound I-47] | 40.4
4 | ≥ 20 | ≥ 20 | ≥ 20 |  |  | 74.4 | > 50 |  | >50 |  | COC[C@H]1SC(N)=N[C@](C)(c2cc(NC(=O)c3cnc(OCF)cn3)ccc2F)[C@H]1F [Compound I-91] | 11.3
5 | ≥ 20 | ≥ 20 | ≥ 20 | > 50 | > 50 | 94.6 |  |  |  |  | Cc1nc(C(=O)Nc2ccc(F)c([C@@]3(C)N=C(N)O[C@H](C(F)(F)F)[C@@H]3C)c2)co1 [Compound I-32] | 15.2
6 | ≥ 20 | ≥ 20 | ≥ 20 | 39.7 (≈ 17.3 µg/mL) | > 50 | 84.7 |  |  |  |  | C[C@@H]1[C@@H](C(F)(F)F)OC(N)=N[C@]1(C)c1cc(NC(=O)c2ccc(C#N)cn2)ccc1F [Compound I-27] | 28.8
7 | ≥ 20 | ≥ 20 | ≥ 20 |  |  | 81 | > 50 |  | >50 |  | CO[C@H]1[C@@H](C)SC(N)=N[C@]1(C)c1cc(NC(=O)c2cnc(OCF)cn2)ccc1F [Compound I-87] | 13.8
8 | ≥ 20 | ≥ 20 | ≥ 20 | 35.8 (≈ 15.1 µg/mL) | > 50 | 93.5 |  |  |  |  | C[C@]1(c2cc(NC(=O)c3ccc(F)cn3)ccc2F)N=C(N)OCC12CC(F)(F)C2 [Compound I-45] | 51.6
9 | ≥ 20 | ≥ 20 | ≥ 20 |  |  | 95.4 | > 50 | > 50 |  |  | C[C@H]1SC(N)=N[C@](C)(c2cc(NC(=O)c3coc(CF)n3)ccc2F)[C@H]1F [Compound I-49] | 27.2
10 |  | ≥ 20 | ≥ 20 |  |  | 80.3 | > 50 |  | >50 |  | C[C@H]1SC(N)=N[C@](C)(c2cc(NC(=O)c3ncc(C#N)cc3Cl)ccc2F)[C@H]1F [Compound I-64] | 41.3
11 | ≥ 20 | ≥ 20 | ≥ 20 |  |  | 86.8 | > 50 |  |  | 19 (≈ 8.39 µg/mL) | C[C@]1(c2cc(NC(=O)c3cnc(OCF)cn3)ccc2F)N=C(N)S[C@H](CO)[C@@H]1F [Compound I-109] | 11
12 | ≥ 20 | ≥ 20 | ≥ 10 |  |  | 76.5 | > 50 |  | >50 |  | C[C@H]1SC(N)=N[C@](C)(c2cc(NC(=O)c3ccc(OCF)cn3)ccc2F)[C@H]1F [Compound I-51] | 39.4
13 | ≥ 20 | ≥ 20 | ≥ 20 |  |  | 104 | 31.9 (≈ 13.3 µg/mL) | > 50 |  |  | C[C@@H](F)[C@H]1OC(N)=N[C@](C)(c2cc(NC(=O)c3ccc(C#N)cn3)ccc2F)[C@H]1F [Compound I-15] | 57
14 | ≥ 20 | ≥ 20 | ≥ 20 |  |  | 83.1 | > 50 |  | >50 |  | COc1cnc(C(=O)Nc2ccc(F)c([C@@]3(C)N=C(N)S[C@H](C)[C@@H]3OC)c2)cn1 [Compound I-90] | 11.4
15 | ≥ 20 | ≥ 20 |  |  |  | 85.2 | > 50 |  |  | 3 (≈ 1.53 µg/mL) | CC(F)(F)[C@H]1OC(N)=N[C@](C)(c2cc(NC(=O)c3cnc(OCC(F)(F)F)cn3)ccc2F)[C@H]1F [Compound I-75] | 21.3
16 | ≥ 20 | ≥ 20 |  |  |  | 93.2 | 47.2 (≈ 21.1 µg/mL) |  |  | 0.6 (≈ 0.269 µg/mL) | C[C@H]1SC(N)=N[C@](C)(c2cc(NC(=O)c3cnc(OCC4CC4)cn3)ccc2F)[C@H]1F [Compound I-85] | 41.4
17 | ≥ 20 | ≥ 20 |  |  |  | 97.8 | > 50 | 8.3 (≈ 3.95 µg/mL) |  |  | C[C@H]1SC(N)=N[C@](C)(c2cc(NC(=O)c3cnc(OCC(F)(F)F)cn3)ccc2F)[C@H]1F [Compound I-46] | 33.4
18 |  | ≥ 20 | ≥ 20 |  |  | 96.5 | > 50 |  | >50 |  | C[C@H]1SC(N)=N[C@](C)(c2cc(NC(=O)c3cnc(C(F)F)cn3)ccc2F)[C@H]1F [Compound I-65] | 28
19 | ≥ 20 | ≥ 20 |  |  |  | 75.8 | > 50 |  | >50 |  | C[C@H]1SC(N)=N[C@](C)(c2cc(NC(=O)c3ccc(F)cn3)ccc2F)C12CC(F)(F)C2 [Compound I-63] | 53.2
20 |  | ≥ 20 | ≥ 20 | 38.8 (≈ 16.2 µg/mL) | > 50 | 85 |  |  |  |  | C[C@H]1[C@@H](C(F)F)OC(N)=N[C@]1(C)c1cc(NC(=O)c2ccc(C#N)cn2)ccc1F [Compound I-31] | 27.4
21 | ≥ 20 | ≥ 20 |  |  |  | 69 | > 50 |  | >50 |  | CC[C@H]1SC(N)=N[C@](C)(c2cc(NC(=O)c3ccc(OCF)cn3)ccc2F)[C@H]1F [Compound I-67] | 56.5
22 | ≥ 20 | ≥ 20 |  |  |  | 93.1 | > 50 |  |  | 11.1 (≈ 5.45 µg/mL) | CC(F)(F)[C@H]1OC(N)=N[C@](C)(c2cc(NC(=O)c3cnc(OCC(F)F)cn3)ccc2F)[C@H]1F [Compound I-77] | 44.1
